Where a SMILES comes first, the peptide text is derived from it. [ ]: non-standard residue; d: D form. Tic = O=C(O)[C@@H]1Cc2ccccc2CN1; Abu = CC[C@H](N)C(=O)O
Legend:
[1] = tested on: primordial follicles of ovarian cortex; assay: Culture of ewe ovarian cortex fragments for 10 days: start of growth of primordial follicles; type: cell-based; conditions: for start of growth of the primordial follicles: 10 days culture, vs control fragments; for number of primordial follicles over time / number of primary follicles: D0-D10
Description: Ovaries of adult ewes are collected immediately after slaughter. The ovaries are placed in an organ transport medium without serum (X-vivo, Bio Whittaker, Walkersville, Md., USA) at 10° C. and transported to the laboratory. Approximately 1 h after removal, the cortex is isolated from the medulla then fractionated into slices of 2 mm thickness (1 cm^2, average weight of 212 mg) after rinsing in new X-vivo. The cortex fragments are cultured in an oven under 5% oxygen for 10 days in well plates in the presence of DMEM. The medium is changed every 2 days.
The procedure used is the same as for Example 1, except that the somatostatin is replaced with one of its agonist analogues, namely the synthetic peptide of formula c[Tic-Tyr-DTrp-Lys-Abu-Phe] (hereafter AG1 peptide).
The procedure used is the same as for Example 1, except that the somatostatin is replaced by one of its antagonist analogues, namely the synthetic peptide of formula Cpa-c(DCys-3-Pal-DTrp-NMeLys-Thr-Cys)-2-Nal-NH2 (hereafter ANT1 peptide).

[2] = Envisaged case: patient with polycystic ovary syndrome treated with lanreotide acetate; type: in vivo, women; conditions: 120 mg/month
[3] = tested on: pituitary cells producing LH and FSH; preovulatory follicles; conditions: rats, in vivo administration; cited from earlier work
granulosa cells [4] = conditions: in vitro, model of granulosa cells; cited from earlier work
granulosa cells [5] = conditions: pig granulosa cells; cited from earlier work
preovulatory oocyte = conditions: pigs; cited from earlier work
[6] = tested on: granulosa cells from preovulatory follicles; conditions: women, in vitro; cited from earlier work
[7] = women, in vivo; cited from earlier work
[8] = co-administered with FSH; infertile patients with polycystic ovary syndrome; cited from earlier work

For C[C@H](N)C(=O)NCC(=O)N[C@H]1CSSC[C@@H](C(=O)O)NC(=O)[C@H](CO)NC(=O)[C@H]([C@@H](C)O)NC(=O)[C@H](Cc2ccccc2)NC(=O)[C@H]([C@@H](C)O)NC(=O)[C@H](CCCCN)NC(=O)[C@H](Cc2c[nH]c3ccccc23)NC(=O)[C@H](Cc2ccccc2)NC(=O)[C@H](Cc2ccccc2)NC(=O)[C@H](CC(N)=O)NC(=O)[C@H](CCCCN)NC1=O [SST14], which “start of growth of the primordial follicles” value ([1]; SST14 10^−9 M to 10^−6 M, FIGS. 1 and 2) is on record?
The value was “very significantly inhibits”.

What about the “number of primordial follicles over time” value ([1]; SST14 10^−9 M to 10^−6 M, FIG. 1) of the same compound?
The value was “maintenance over time”.

What about the “number of primary follicles” value ([1]; SST14 10^−9 M to 10^−6 M, FIG. 2) of the same compound?
Its value is “absence of increase”.

For CC[C@@H]1NC(=O)[C@H](CCCCN)NC(=O)[C@@H](Cc2c[nH]c3ccccc23)NC(=O)[C@H](Cc2ccc(O)cc2)NC(=O)[C@@H]2Cc3ccccc3CN2C(=O)[C@H](Cc2ccccc2)NC1=O [AG1 peptide, c[Tic-Tyr-DTrp-Lys-Abu-Phe]] (cyclo([Tic]Y[dW]K[Abu]F)), which “start of growth of the primordial follicles” value ([1]; AG1 peptide 10^−9 M, FIG. 4) is on record?
Its value is “very significantly inhibits”.

And the “number of primary follicles” value ([1]; AG1 peptide 10^−9 M, FIG. 4)?
The value was “absence of increase”.

And the “number of primordial follicles over time” value ([1]; AG1 peptide 10^−9 M, FIG. 4)?
The value was “maintenance over time”.

What does the source list for CC(C)[C@@H]1NC(=O)[C@H](CCCCN)NC(=O)[C@@H](Cc2c[nH]c3ccccc23)NC(=O)[C@H](Cc2ccc(O)cc2)NC(=O)[C@@H](NC(=O)[C@H](N)Cc2ccc3ccccc3c2)CSSC[C@@H](C(=O)N[C@H](C(N)=O)[C@@H](C)O)NC1=O [lanreotide acetate]?
ovarian volume and number of antral follicles (ultrasound) ([2]; 4th month of treatment): reduction; pregnancy test ([2]; 8th month of treatment): positive; periods ([2]; after 3 months of treatment): spontaneous periods

What does the source list for C[C@H](N)C(=O)NCC(=O)N[C@H]1CSSC[C@@H](C(=O)O)NC(=O)[C@H](CO)NC(=O)[C@H]([C@@H](C)O)NC(=O)[C@H](Cc2ccccc2)NC(=O)[C@H]([C@@H](C)O)NC(=O)[C@H](CCCCN)NC(=O)[C@H](Cc2c[nH]c3ccccc23)NC(=O)[C@H](Cc2ccccc2)NC(=O)[C@H](Cc2ccccc2)NC(=O)[C@H](CC(N)=O)NC(=O)[C@H](CCCCN)NC1=O [SST]?
number of pituitary cells producing LH and FSH and number of preovulatory follicles in the ovary [3]: seems to reduce; aromatase and production of progesterone, stimulated by FSH (granulosa cells [4]): inhibits; increase in cAMP induced by LH and forskolin (granulosa cells [5]): inhibits; nuclear maturation of the preovulatory oocyte (preovulatory oocyte): seems to inhibit; synthesis of IGF-BP1 and of progesterone [6]: inhibiting; secretion of LH by the pituitary, production of androgens and IGF-1 serum levels [7]: capable of reducing; serum levels of IGF-BP3 [7]: increases; follicle growth induced by the administration of FSH [8]: not however accompanied by a significant impact
